{"source": "patent US20230279379A1", "about": "“METHODS AND MICROFLUIDIC DEVICE FOR PRODUCING EXTRACELLULAR VESICLES” (THE BOARD OF TRUSTEES OF THE UNIVERSITY OF ILLINOIS, priority 2022, published 2023)", "system": "Primary human MSCs", "assay": "EV secretion per cell from MSCs on hydrogel substrates, nanoparticle tracking analysis", "format": "cell-based", "settings": "for EV secretion vs vehicle: 3 μM MnCl2 during and after adhesion, elastic alginate-RGD hydrogels, soft and stiff", "method": "Cell Seeding on Hydrogels. Hydrogel discs were placed in ultra-low binding polystyrene well plates (Corning) to ensure cells attach to hydrogels and not the plate surface. Hydrogels were washed with Hank's buffered salt solution (HBSS, Thermo Fisher Scientific) for at least 3 days before seeding cells. Cells were seeded at a low density (25 cells/mm^2). After seeding, hydrogels were washed thoroughly to remove unattached cells. Drug treatments of 3 μM MnCl2 (Thermo Fisher Scientific), 200 nM EMD 121974 sold under the tradename Cilengitide® (Cayman) and 5 μM CK869 (Cayman) were applied during and after cell adhesion to substrates. To evaluate the number of live cells seeded on substrates, cells were detached by incubating with a natural enzyme mixture with proteolytic and collagenolytic enzyme activity sold under the tradename ACCUTASE® Cell Detachment Solution (Innovative Cell Technologies, Inc.) for 10 minute at 37° C. Cells were then washed by centrifugation and directly added to HBSS containing calcein AM (1:2000; Biotium), ethidium bromide (1:2000; Thermo Fisher Scientific), and a predefined number of allophycocyanin (APC) beads (BD). After incubation at room temperature (RT) for 10 minutes, the samples were analyzed for live and dead cell number by flow cytometry.\nParticle Size and Number Characterization. Particle size and number were obtained using Nanoparticle Tracking Analysis 3.2 (NTA) via NanoSight NS300 (Malvern) using a 405 nm laser. Samples were introduced by syringe pump at a rate 100 μL/min. Three thirty-second videos were acquired using camera level 14 followed by detection threshold 7. Camera focus, shutter, blur, minimum track length, minimum expected particle size and maximum jump length were set automatically by the software. Samples were diluted as needed to maintain particles per video from 100-2000. To ensure specificity, all samples were tested as compared to appropriate blank conditions.\nTo test the effect of substrate mechanics on EV secretion from MSCs, hydrogel substrates were engineered which were composed of alginate polymer conjugated with the cell adhesion peptide Arg-Gly-Asp (RGD) that binds primarily to αvβ3 and α5β1 integrins. Alginate-RGD hydrogels can be formed either covalently through adipic acid dihydrazide or physically through divalent cations, resulting in elastic or stress-relaxing hydrogels, respectively. For both types of hydrogels, elastic modulus (Young's modulus, E) of ˜3 kPa ‘soft’ and E ˜20 kPa ‘stiff’ were considered values that represent a physiologically relevant range of substrate elasticity for MSC mechanosensing, while E is ˜0.1 GPa for conventional plastic substrates. Primary human bone marrow MSCs were allowed to adhere to substrates for 24 hours followed by washout and collection of the serum-free conditioned medium from MSCs after 24 hours. After centrifugation of the medium at 10,000 g to remove cell, apoptotic, and larger particle fractions, particles remaining in the medium were analyzed by nanoparticle tracking analysis and normalized to the number of live adhered cells counted by flow cytometry (see Methods). MSCs were seeded at low density (˜25 cells/mm^2) to avoid potential effects from cell-cell interactions. […] Thus, focus was placed on the EVs remaining in the supernatant after the 10,000 g centrifugation. For these EVs, the particle size distribution remained similar across different substrates with median diameter ˜120 nm (FIG. 1B). […] Moreover, EVs from different substrates expressed similar levels of late endosomal markers CD63 and CD9. Importantly, levels of ribosomal RNA (rRNA) in particle preparations were similar across hydrogels or plastic substrates, and rRNA as a percentage of total RNA was lower than that found in untreated MSCs or particles derived from H2O2-treated apoptotic MSCs, ruling out apoptosis as a potential factor of increased EV secretion on the soft hydrogel. […]", "note": "“Also recorded” adds a separate entry of the source. Where no end group is shown, it is not given here.", "data": [{"compound": "[Cl][Mn][Cl]", "note": "[MnCl2]", "values": [{"measurement": "EV secretion vs vehicle", "result": "inhibits EV secretion"}, {"measurement": "EV secretion vs vehicle", "setting": "listed as Mn^2+", "result": "decreased to a greater extent on the soft hydrogel than the stiff hydrogel"}]}, {"compound": "Cc1ccc2c(c1)C(=O)C1(O)CCN(c3ccccc3)C1=N2", "note": "(stereo not drawn) [blebbistatin]", "values": [{"measurement": "exosome secretion", "setting": "50 μM blebbistatin, soft or stiff elastic alginate-RGD hydrogels", "result": "did not impact exosome secretion"}]}, {"compound": "RGD: cell adhesion peptide, amino acid sequence GGGGRGDSP (SEQ ID NO:1), conjugated to hydrogel (also: conjugated to hydrogel)", "values": [{"measurement": "EV secretion on decreasing the amount of RGD conjugated in hydrogels", "setting": "FIG. 5", "result": "significantly increases EV secretion"}, {"measurement": "increase in EV secretion per cell", "setting": "decreasing RGD concentration from 0.8 to 0.16 mM, both soft and stiff hydrogels", "result": "~2", "unit": "fold"}]}, {"compound": "CC(C)[C@H]1C(=O)N[C@@H](CCCN=C(N)N)C(=O)NCC(=O)N[C@@H](CC(=O)O)C(=O)N[C@H](Cc2ccccc2)C(=O)N1C", "note": "[EMD 121974]", "values": [{"measurement": "EV secretion", "setting": "200 nM EMD 121974 during and after adhesion, soft and stiff hydrogels", "result": "significantly increased EV secretion on both soft and stiff hydrogels; also recorded: enhances EV secretion"}]}]}
